{"source": "patent US5470879A", "about": "“Treatment of non-insulin-dependent diabetes” (Laboratories Monal, priority 1992, dated 1995)", "key": {"[1]": {"test": "Gastric intubation in fasted conscious normal dogs: blood insulin and sugar levels", "assay_type": "in vivo", "settings": "9 mg/kg by gastric intubation", "protocol": "(§1) In these examples, the pancreatic hormones (insulin and glucagon) were evaluated by radioimmunoassays.\n(§2) Blood sugar level was assayed using a Technicon autoanalyzer by the potassium ferricyanide method.\nDuring a complementary experiment in dogs, we investigated whether 4-hydroxyisoleucine can be active after oral administration, and whether, in this case, this substance retains its insulin-secreting property and consequently its capacity to improve glucose tolerance.\n(§3) Using conscious normal dogs kept fasted for 18 hours, 4-hydroxyisoleucine is dissolved in physiological saline and administered by gastric intubation at a dose of 9 mg/kg.\nBlood samples drawn from one of the two jugular veins enabled the blood insulin and sugar levels of these animals to be evaluated. […] The arrows near the top of FIGS. 4A and 4B represent the approximate time of administration of the 4-hydroxyisoleucine."}, "[2]": {"test": "Acute intraperitoneal toxicity in Swiss mice", "assay_type": "in vivo", "protocol": "The acute toxicity was determined in Swiss mice of both sexes on intraperitoneal administration of a single dose of 1 gram per kilo of 4-hydroxyisoleucine. […] The LDo (zero lethal dose) is greater than 1 gram per kilo under our experimental conditions."}, "[3]": {"test": "Intravenous glucose tolerance test (IVGTT) in anaesthetized normal rats fed ad libitum", "assay_type": "in vivo", "protocol": "as §2\n(§4) During this experiment, Wistar rats were anaesthetized and then provided with catheters in both jugular veins. One catheter enables blood samples needed for the assay of plasma glucose and plasma insulin to be taken, the other catheter is used for the intravenous injection of the test substance.\nStill in anaesthetized normal rats previously fed ad libitum, an intravenous glucose tolerance test was carried out.\nDissolved glucose was administered intravenously at a dose of 0.3 g/kg in one of the two jugular veins of the rat. […] In FIG. 3, \"o\" indicates the values observed when administering glucose alone, while \".cndot.\" indicates the values observed during the administration of glucose plus 4-hydroxyisoleucine."}, "[4]": {"test": "Orally induced hyperglycaemia (OGTT) in fasted conscious normal dogs", "assay_type": "in vivo", "protocol": "as §2, §3\nDissolved glucose was administered by gastric intubation at a dose of 1 g/kg.\nIn FIG. 5, \"o\" represents values observed upon administering glucose alone; \".cndot.\" represents values observed in a trial in which glucose plus 4-hydroxyisoleucine is administered. The arrow toward the top of FIG. 5 represents the point of administration of the glucose or glucose plus 4-hydroxyisoleucine. When 4-hydroxyisoleucine (9 mg/kg) is added to the glucose solution administered by gastric intubation, the blood sugar level reaches only 120 mg/dl at the 30th minute, i.e. only +31%."}, "[5]": {"assay_type": "in vivo, Wistar rats", "protocol": "as §1, §2\nThe results were subjected to a variance analysis followed by the multiple comparison test.\nas §4"}, "[6]": {"test_system": "isolated and perfused rat pancreas", "test": "Isolated and perfused rat pancreas: insulin secretion, vascular flow, glucagon (8.3 mM glucose)", "settings": "for Insulin secretion: glucose alone 810 ± 83", "protocol": "as §1\nTo carry out this test, the pancreas was completely isolated from all the other neighbouring organs and tissues (spleen, stomach, duodenum, epiploic fat) and perfused in an open circuit with a physiological solution in a perfusion chamber. This preparation has the advantage of preserving the functional and vascular integrity of the organ while depriving it of the regulatory influences (humoral or nervous) to which it is normally subjected.\nIn this example, the experiments were carried out in the presence of an 8.3 mM concentration of glucose. Under these conditions, the effect on insulin secretion of a perfusion of 4-hydroxyisoleucine at a concentration of 200 μM for 10 minutes was studied. […] The perfusion of the 4-hydroxyisoleucine is indicated by the rectangular box with the lines extending downwardly from opposite sides of the box, near the top of the Figure.\nThe amounts of insulin secreted during the 10 minutes of perfusion are shown below: […]"}, "[7]": {"test_system": "isolated islets of Langerhans of rat pancreas", "test": "Insulin secretion of isolated islets of Langerhans of rat pancreas (8.3 mM glucose, 1 hour)", "assay_type": "cell-based, Wistar rats", "protocol": "as §1\nThis method, which has the advantage of necessitating only a small amount of substance, permits a direct study of the effects of the composition on pancreatic endocrine cells, especially insulin-secreting B cells, to the exclusion of any interference with the exocrine and related tissues.\nThe effect of different concentrations of 4-hydroxyisoleucine on insulin secretion was investigated on isolated islets of Wistar rats, incubated in the presence of 8.3 mM glucose (1.5 g/l) for 1 hour. The results obtained are recorded in FIG. 1, in which the histograms represent the insulin secretion measured over 60 minutes for each dose of 4-hydroxyisoleucine.\nBy way of comparison, the effects of two structural analogues of 4-hydroxyisoleucine, i.e. isoleucine and leucine, were observed under the same conditions, and it could be established that, with these two substances, the stimulatory effect on insulin secretion is apparent only with concentrations 50 to 100 times as high."}, "[8]": {"settings": "9 mg/kg I.V., -2 min (before injection)"}, "[9]": {"settings": "9 mg/kg I.V., -10 min (before injection)"}, "[10]": {"settings": "9 mg/kg I.V., -15 min (before injection)"}}, "note": "Like-named read-outs stand apart in the source and are kept apart here."}
{"smiles": "C[C@@H]([C@H](C)O)[C@H](N)C(=O)O", "note": "[4-hydroxyisoleucine]", "values": [{"measurement": "duration of hyperinsulinaemia", "setting": "[1]; fasted", "value": 5, "unit": "min"}, {"measurement": "effect on blood sugar level", "setting": "[1]; fasted", "value": "gradual and discrete reduction in blood sugar level"}, {"measurement": "rise in blood insulin level", "setting": "[1]; from the 3rd minute", "value": "+277%"}, {"measurement": "macroscopic deleterious effect on the main organs at autopsy", "setting": "[2]; 1 gram per kilo intraperitoneal, thymus, heart, lungs, liver, stomach, kidneys, adrenals, pancreas, duodenum, genital tract, bladder", "value": "does not appear to disclose any macroscopic deleterious effect"}, {"measurement": "LDo (zero lethal dose)", "setting": "[2]; intraperitoneal, single dose", "value": "greater than 1 gram per kilo"}, {"measurement": "toxic phenomenon over 15 days", "setting": "[2]; single dose 1 gram per kilo intraperitoneal", "value": "does not appear to detect any toxic phenomenon"}, {"measurement": "effect on induced hyperglycaemia", "setting": "[3]; 9 mg/kg I.V. with glucose 0.3 g/kg I.V.", "value": "markedly reduced"}, {"measurement": "Blood sugar level", "setting": "[3]; 9 mg/kg I.V. with glucose 0.3 g/kg I.V., 3rd minute, glucose alone 282 mg/dl", "value": 204, "unit": "mg/dL"}, {"measurement": "change in blood sugar level", "setting": "[3]; 9 mg/kg I.V. with glucose 0.3 g/kg I.V., 3rd minute, glucose alone +112%", "value": "+58%"}, {"measurement": "glucose tolerance", "setting": "[3]; rat, intravenously, summary statement", "value": "improves glucose tolerance"}, {"measurement": "Blood sugar level", "setting": "[4]; 9 mg/kg intragastric with glucose 1 g/kg, 30th minute, glucose alone 166 mg/dl", "value": 120, "unit": "mg/dL"}, {"measurement": "change in blood sugar level", "setting": "[4]; 9 mg/kg intragastric with glucose 1 g/kg, 30th minute, glucose alone +85%", "value": "+31%"}, {"measurement": "glucose tolerance", "setting": "[4]; dog, orally, summary statement", "value": "improves glucose tolerance"}, {"measurement": "effect on plasma insulin level", "setting": "[5]; 9 mg/kg I.V.", "value": "immediate and particularly important increase"}, {"measurement": "time after injection at which reduction in circulating glucose level becomes significant", "setting": "[5]; 9 mg/kg I.V.", "value": 15, "unit": "min"}, {"measurement": "Blood sugar level", "setting": "[5]; 9 mg/kg I.V., 2 min", "value": "1.26 ± 0.08", "unit": "g/L"}, {"measurement": "Plasma insulin", "setting": "[5]; 9 mg/kg I.V., 2 min", "value": "4.4 ± 1.1", "unit": "ng/mL"}, {"measurement": "Blood sugar level", "setting": "[5]; 9 mg/kg I.V., 5 min", "value": "1.18 ± 0.04", "unit": "g/L"}, {"measurement": "Plasma insulin", "setting": "[5]; 9 mg/kg I.V., 5 min", "value": "9.1 ± 1.0", "unit": "ng/mL"}, {"measurement": "Blood sugar level", "setting": "[5]; 9 mg/kg I.V., 15 min", "value": "0.94 ± 0.09", "unit": "g/L"}, {"measurement": "Plasma insulin", "setting": "[5]; 9 mg/kg I.V., 15 min", "value": "18.5 ± 1.5", "unit": "ng/mL"}, {"measurement": "Blood sugar level", "setting": "[5]; 9 mg/kg I.V., 30 min", "value": "0.99 ± 0.10", "unit": "g/L"}, {"measurement": "Plasma insulin", "setting": "[5]; 9 mg/kg I.V., 30 min", "value": "18.6 ± 1.5", "unit": "ng/mL"}, {"measurement": "Blood sugar level", "setting": "[5]; 9 mg/kg I.V., 45 min", "value": "0.99 ± 0.12", "unit": "g/L"}, {"measurement": "Plasma insulin", "setting": "[5]; 9 mg/kg I.V., 45 min", "value": "14.5 ± 4.8", "unit": "ng/mL"}, {"measurement": "Blood sugar level", "setting": "[5]; 9 mg/kg I.V., 60 min", "value": "0.94 ± 0.10", "unit": "g/L"}, {"measurement": "Plasma insulin", "setting": "[5]; 9 mg/kg I.V., 60 min", "value": "14.4 ± 4.8", "unit": "ng/mL"}, {"measurement": "Blood sugar level", "setting": "[5]; 9 mg/kg I.V., 90 min", "value": "0.89 ± 0.12", "unit": "g/L"}, {"measurement": "Plasma insulin", "setting": "[5]; 9 mg/kg I.V., 90 min", "value": "14.9 ± 5.2", "unit": "ng/mL"}, {"measurement": "Blood sugar level", "setting": "[5]; [8]", "value": "1.34 ± 0.07", "unit": "g/L"}, {"measurement": "Plasma insulin", "setting": "[5]; [8]", "value": "3.4 ± 1.1", "unit": "ng/mL"}, {"measurement": "Blood sugar level", "setting": "[5]; [9]", "value": "1.38 ± 0.09", "unit": "g/L"}, {"measurement": "Plasma insulin", "setting": "[5]; [9]", "value": "2.4 ± 0.1", "unit": "ng/mL"}, {"measurement": "Blood sugar level", "setting": "[5]; [10]", "value": "1.32 ± 0.09", "unit": "g/L"}, {"measurement": "Plasma insulin", "setting": "[5]; [10]", "value": "2.8 ± 0.2", "unit": "ng/mL"}, {"measurement": "reduction in circulating glucose level relative to the starting value", "setting": "[5]; 9 mg/kg I.V., at the 90th minute", "value": "approximately 30%"}, {"measurement": "side effect secondary to the injection (polypnea, tachycardia, hypoxia)", "setting": "[5]; I.V. injection, anaesthetized rats", "value": "no side effect"}, {"measurement": "Insulin secretion", "setting": "[6]; 50 μM", "value": "1232 ± 93", "unit": "ng/10 min"}, {"measurement": "Insulin secretion", "setting": "[6]; 200 μM", "value": "1520 ± 154", "unit": "ng/10 min"}, {"measurement": "effect on insulin secretion (time course)", "setting": "[6]; 200 μM, perfusion for 10 minutes", "value": "stimulation is immediate and in two phases, and persists throughout the period of the perfusion"}, {"measurement": "Insulin secretion", "setting": "[6]; 500 μM", "value": "2206 ± 213", "unit": "ng/10 min"}, {"measurement": "concentration dependence of stimulatory effect on insulin secretion", "setting": "[6]; 50 to 500 μM", "value": "stimulatory effect increases with the 4-hydroxyisoleucine concentration"}, {"measurement": "pancreatic vascular flow and level of pancreatic glucagon", "setting": "[6]; during perfusion", "value": "no modification"}, {"measurement": "minimal effective concentration", "setting": "[7]; Rattus norvegicus, 1 h, read-out: concentration at which a stimulatory effect on insulin secretion is apparent", "value": 200, "unit": "µM"}, {"measurement": "dose dependence of stimulation of insulin secretion", "setting": "[7]; isolated rat islets, 8.3 mM glucose", "value": "increases slightly with the dose"}, {"measurement": "mode of stimulation of insulin secretion", "setting": "[7]; summary of \"in vitro\" tests", "value": "direct effect on the B cell of the islet of Langerhans"}]}
